Assay results: US9872903B2, “Targeting thymidine kinase photosensitizer and pharmaceutical composition and use for cancer treatment thereof” (ZHEJIANG HISUN PHARMACEUTICAL CO., LTD., priority 2012, dated 2018)

Assays:
[1] = system: PC3 cell line; test: morphology change by DAPI staining; type: cell-based, human; conditions: paclitaxel pretreatment
[2] = system: tumor cells of PC3 line; test: in vivo therapeutic effect of PDT in tumor-bearing Scid mice; conditions: 665 nm; for curative ratio: photosensitizer 0.5 μmol/kg i.v., light 24 h later, 135 J/cm^2, 75 mW/cm^2, 60 days, 10 mice; for mice with no tumor relapse observed after 60 days: photosensitizer 0.5 μmol/kg, 135 J/cm^2, 75 mW/cm^2
Description: Procedure: subcutaneous injection of 3×10^5 tumor cells were performed to the mice, and the cells were allowed to grow so that the diameter can reach 4-5 mm. The hairs at the inoculation site were shaved one day before laser irradiation, and the photosensitizer at various concentrations was intravenously injected to the mice. The mice were not anesthetized, and were limited in a plastic circle 24 h after photosensitizer injection (such as Compound 1 or 3). Subsequently, light treatment was performed after the emission wavelength was tuned to the activation wavelength of the drug using an argon-pumped dye laser monochromes, wherein paclitaxel was additionally injected 8 h before exposure in the combination therapy group. The parameters involved in the therapy included a diameter of 1 cm^2, fluence rate of 75 mW/cm^2 and total light dosage of 135 J/cm^2.
If tumor growth was observed, two perpendicular values L and W (perpendicular to L) were used for the detection, and the volume of tumor can be calculated according to the equation V=(L×W^2)/2. If no evidence for regeneration can be observed 60 days after PDT therapy, the mice can be considered as cured. There were 10 mice in each group at each concentration.
The dosages of HPPH and HPPH-thymidine conjugate used in this experiment were both 0.5 μmol/kg. The single dosage of paclitaxel for additional injection 8 h before exposure was 35 mg/kg. The irradiation parameters included 665 nm, 135 J/cm^2, and 75 mW/cm^2. The curative ratio can be simply calculated based on the equation: number of mice without tumor regeneration×100%/total number of mice. For example, 60 days after administration of Compound 3, i.e., HPPH-thymidine conjugate of the present invention, there were 5 mice without tumor regeneration, and there were totally 10 mice in each group. Accordingly, the curative ratio is 5×100%/10, i.e., 50%.

[3] = system: PC-3 (human prostatic cancer) cell line; test: in vitro light cytotoxicity test of PDT at 675 nm or 703 nm (MTT); type: cell-based
Description: The in vitro therapeutic effect of PDT was compared among the following compounds in PC-3 (human prostatic cancer) cell line by in vitro light cytotoxicity test. The procedure was the same as that in Example 4. Briefly, PC3 cells were coated onto the wells of a 96-well plate and adhered for 6-24 h. Subsequently, the cells were treated by the PDT photosensitizer at various concentrations for 24 h, followed by irradiation at 675 nm (dose rate of 3.2 mW/cm^2) or 703 nm (dose rate of 3.2 mW/cm^2) using various high dosages. After 48 h, the cell growth was evaluated by colorimetry, wherein the insoluble formazan product generated in MTT method was dissolved and its concentration was detected at 570 nm through optical density.
The results of the treatment at 675 nm were shown in FIG. 4, wherein PLH-14 was Compound 5 in Example 2, and PLH-13 was Compound 6, i.e., thymidine conjugate of Compound 5, in Example 2. The concentration of both PLH-13 and PLH-14 was 0.1 μM. The results of the treatment at 703 nm were shown in FIG. 5, wherein 277-COOH was Compound 7 in Example 3, and PLH-12 was Compound 8, i.e., thymidine conjugate of Compound 7, in Example 3. The concentration of both 277-COOH and PLH-12 was 0.05 μM. As shown in FIG. 4 and FIG. 5, the in vitro therapeutic effect of PDT using the photosensitizer was enhanced by conjugation of Compound 5, […] Compound 7 with thymidine.

[4] = system: PC3 cell line; test: in vitro light-induced cytotoxicity test (PDT, MTT assay); type: cell-based, human; conditions: for survival rate: Pharmaceutical 3 0.003 μM
Description: In the present invention, the in vitro therapeutic effect of PDT was compared among HPPH, HPPH-thymidine conjugate and HPPH-thymidine conjugate in combination with chemotherapeutic agent paclitaxel in an in vitro light-induced cytotoxicity test.
Procedure: in this Example, a highly metastatic and […] prostatic cancer cell, PC3 cell line, was selected. The PC3 cells were cultured in RPMI 1640 medium supplemented with 10% fetal bovine serum, L-glutamine, penicillin, and streptomycin at 37° C., 5% CO2 and 95% air, and 100% humidity. Subsequently, the PC3 cells were inoculated in the complete medium in a 96-well plate at the density of 5×10^3 cell/well with 6 multiple wells arranged. After cultured at 37° C. overnight, the cells were treated by the photosensitizer or paclitaxel at gradient concentrations in darkness for 24 h. For the treatment using HPPH-thymidine conjugate in combination with paclitaxel, paclitaxel was additionally injected 8 h before exposure, and the concentrations of paclitaxel and the photosensitizer were the same as above.
After the pharmaceutical-containing medium was replaced by fresh medium, the cells were irradiated by light at 665 nm and with a dosage rate of 3.2 mW/cm^2 using an argon-pumped dye laser.
After treated by PDT or paclitaxel alone, the cells were cultured for 48 h at 37° C. in darkness. The phototoxicity was determined by MTT assay (by comparison of the survival rate between the test cells and the untreated cells). The dosage-response survival curve was also plotted. In the Figures, the value was the average of 3 independent experiments, and the error bar stood for standard deviation. In each treatment, the concentration of Compound 3, i.e., HPPH-thymidine conjugate, was 0.06 μM, and the concentration of Compound 1, i.e., HPPH, was 0.06 μM, and the concentration of paclitaxel was 2 nM.

CC(=O)O[C@H]1C(=O)[C@@]2(C)[C@H]([C@H](OC(=O)c3ccccc3)[C@]3(O)C[C@H](OC(=O)[C@H](O)[C@@H](NC(=O)c4ccccc4)c4ccccc4)C(C)=C1C3(C)C)[C@]1(OC(C)=O)CO[C@@H]1C[C@@H]2O [paclitaxel]
mechanism of cell death [1]: apoptosis mechanism

2-((1′-n-hexyloxy)ethyl)-2-devinyl-pyropheophorbide-α [Compound 1, reference compound]
curative ratio [2]: 30%
mice with no tumor relapse observed after 60 days [2]: 3/10

CCCCOC(C)c1c(C)c2cc3nc(c4c5[nH]c(cc6nc(cc1[nH]2)C(C)=C6CC)c(C)c5C(=O)N(CCCC)C4=O)C(CCC(=O)OCC1OC(n2cc(C)c(=O)[nH]c2=O)CC1O)C3C (centres unmarked) [Compound 8]
in vitro therapeutic effect of PDT (relative growth rate, FIG. 5) ([3]; 703 nm, 3.2 mW/cm^2, 0.05 μM, compared with unconjugated 277-COOH (Compound 7)): enhanced

CCCCCCOC(C)c1c(C)c2[nH]c1cc1nc(cc3[nH]c4c(c5nc(c2-c2ccc(C(=O)OCC6OC(n7cc(C)c(=O)[nH]c7=O)CC6O)cc2)C(C)C5CCC(=O)OCC2OC(n5cc(C)c(=O)[nH]c5=O)CC2O)CC(=O)c4c3C)C(CC)=C1C (centres unmarked) [Compound 6, 17^3-thymidylyl-20-(4-thymidylyloxycarbonyl)phenyl-3-((1′-n-hexyloxy)ethyl)-3-devinyl-pyro pheophorbide]
in vitro therapeutic effect of PDT (percentage of control growth, FIG. 4) ([3]; 675 nm, 3.2 mW/cm^2, 0.1 μM, compared with unconjugated PLH-14 (Compound 5)): enhanced

CCCCCCOC(C)c1c(C)c2cc3nc(c4c5[nH]c(cc6nc(cc1[nH]2)C(C)=C6CC)c(C)c5C(=O)C4)C(CCC(=O)OCC1OC(n2cc(C)c(=O)[nH]c2=O)CC1O)C3C (centres unmarked) [Compound 3, 17^3-thymidylyl-3-((1′-n-hexyloxy)ethyl)-3-devinyl-pyropheophorbide]
light dosage of IC50 ([4]; PDT with Compound 3 0.06 μM alone, 665 nm, 3.2 mW/cm^2, MTT after 48 h): 0.13 J/cm^2
survival rate ([4]; light dosage 0.25 J/cm^2, before action of paclitaxel): 100%
survival rate ([4]; light dosage 0.25 J/cm^2, under the action of paclitaxel (0.000704)): 80%
in vitro therapeutic effect of PDT (cell survival vs light dosage, FIG. 3) ([4]; photosensitizer 0.06 μM, paclitaxel 2 nM, 665 nm): higher than that using HPPH
curative ratio [2]: 50%
mice with no tumor relapse observed after 60 days [2]: 5/10
